What all share (experiment): growth of human tumour cells (NCI), 48 h
The subject of assay [1] is A498 renal.
Assay [2] has as its system OVCAR-3 ovarian.
The test system of assay [3] is MOLT-4 leukemia.
Assay [4] has as its system BT-549 breast.
The subject of assay [5] is 786-0 renal.
Assay [6] relates to TK-10 renal.
The test system of assay [7] is KM12 colon.
The subject of assay [8] is K-562 leukemia.
Assay [9] deals with HOP-92 NSCLC.
Assay [10] relates to NCI-H522 lung.

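A five-concentration, 48-hour dose response in 96-well plates underlies each endpoint, interpolated linearly between surrounding concentrations. GI50 marks 50% less growth. Definition used: TGI = concentration required for complete inhibition of growth.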

`Cc1nn(Cc2ccccc2)cc1C(=O)Nc1sc2c(c1C(N)=O)CCC(=O)C2`: the GI50 in [1] is 3.97 µM; in assay [2] it was 1.7 µM; in [3], 2.62 µM; in assay [4] it was 2.56 µM; in assay [5] it was 3.55 µM; in assay [6], 3.33 µM. For the same compound, the GI50 was 1.94 µM in assay [7], 1.7 µM in assay [8], 1.88 µM in [9] and 1.25 µM in [10]. In addition, the TGI in assay [1] came out at 28.2 µM; in [2], 3.43 µM; in assay [3], 9.27 µM; in assay [4] it was 7.82 µM; in [5] it was 28.6 µM; in [6], 26.4 µM. Also, the TGI in [7] stood at 4.99 µM; in [8] it was 13.1 µM; in [9] it was 4.47 µM; in [10] it was 5.25 µM.
In the case of `Cn1c2c(c3ccccc3c1=O)C(=O)c1ccccc1-2`, the TGI in [1], in assay [2], in assay [3], in assay [4], in assay [5] and in assay [6] was over 100 µM throughout. In addition, the TGI in assay [7], in assay [8], in assay [9] and in [10] was over 100 µM each time.
With `Cc1cc(N(CCC#N)CCC#N)ccc1/C=C(\NC(=O)/C=C/c1ccccc1)C(=O)Nc1ccc(Cl)cc1`, the TGI in [1], in assay [2], in assay [3], in [4], in [5] and in assay [6] was over 100 µM each time. The TGI is over 94 µM in assay [7], over 100 µM in [8], over 100 µM in [9] and over 100 µM in [10].
Turning to `Cc1c(NC(=O)Nc2c(Cl)cccc2Cl)c(=O)n(-c2ccccc2)n1C`, the TGI in [1], in [2], in [3], in assay [4], in assay [5] and in assay [6] was over 100 µM throughout. Also, the TGI in assay [7], in assay [8], in [9] and in assay [10] was over 100 µM each time.
Consider `COc1c(B(O)O)cccc1-c1nc2ccc3[nH]ncc3c2c2c1CCCC2`, for which the GI50 in assay [1] was 0.491 µM; in [2] it was 3.43 µM; in assay [3] it was 1.57 µM; in assay [4], 0.122 µM; in assay [5], 1.2 µM; in assay [6] it was 0.0448 µM. In addition, the GI50 was 2.25 µM in assay [7], 3.4 µM in [8] and 1.41 µM in assay [10]. In addition, the TGI is 3.88 µM in assay [1]; 12.3 µM in assay [2]; over 34.6 µM in [3]; 2.56 µM in [4]; 11.9 µM in [5]; 16.4 µM in assay [6]. For the same compound, the TGI in assay [7] was 10.9 µM; in [8] it was over 100 µM; in [9] it was 6.56 µM; in assay [10] it was 10.5 µM.
On to `c1cc(C2CCCCC2)ccc1-c1cnc2nonc2n1`, for which the GI50 was 0.565 µM in assay [1]; 0.557 µM in assay [2]; 0.393 µM in assay [3]; 1.29 µM in assay [4]; 0.506 µM in [5]; 1.28 µM in assay [6]. In addition, the GI50 was 0.973 µM in assay [7], 0.4 µM in [8], 0.422 µM in [9] and 0.548 µM in assay [10]. For the same compound, the TGI in [1] was 2.32 µM; in assay [2], 1.97 µM; in assay [3], over 56.5 µM; in assay [4], 3.25 µM; in assay [5] it was 1.9 µM; in assay [6] it was 2.79 µM. The TGI in assay [7] was found to be 3.65 µM; in assay [8] it was 18.8 µM; in assay [9] it was 2.12 µM; in assay [10] it was 2.56 µM.
With `Cc1nc2sc(C(=O)Nc3ccccc3)c(N)c2cc1C(O)c1ccccc1` (stereo not drawn), the GI50 is 0.106 µM in [1]; 0.263 µM in assay [2]; 0.367 µM in [3]; 0.409 µM in [4]; 0.553 µM in assay [5]; 6.03 µM in [6]. Besides, the GI50 was 0.344 µM in assay [7], 0.0933 µM in assay [8], 3.56 µM in [9] and 0.304 µM in assay [10]. The TGI in assay [1] was 1.19 µM; in assay [2], 3.3 µM; in [3] it was 25.5 µM; in [4] it was 24.1 µM; in assay [5], 20 µM; in assay [6], over 100 µM. Moreover, the TGI in assay [7] was over 44 µM; in assay [8], over 59.2 µM; in assay [9], 54.5 µM; in assay [10], over 24.1 µM.
With `CCCCSc1nc(N)c2cn[nH]c2n1`, the GI50 is 15.9 µM in [1]; 17.1 µM in assay [2]; 26.3 µM in [3]; 20.1 µM in assay [4]; 21.2 µM in [5]; 7.99 µM in assay [6]. Moreover, the GI50 in [7] was 15 µM; in assay [8] it was 29.7 µM; in assay [10], 20.7 µM. In addition, the TGI is 31 µM in assay [1]; 35.1 µM in assay [2]; over 78 µM in [3]; 43.2 µM in [4]; 57.3 µM in [5]; 29.4 µM in assay [6]. Further, the TGI in assay [7] was 30.4 µM; in assay [8] it was over 100 µM; in assay [9], 2.39 µM; in assay [10], 49.6 µM.
Consider `COc1cc2c(NC3CCN(C(C)C)CC3)nc(C3CCCCC3)nc2cc1OCCCN1CCCC1`, for which the GI50 in [1] was 2.01 µM; in assay [2], 6.98 µM; in assay [3], 3.38 µM; in [4], 3.85 µM; in [5], 6.14 µM; in [6] it was 2.15 µM. Moreover, the GI50 in assay [7] is 3.07 µM; in assay [8] it was 1.99 µM; in assay [9], 3.48 µM; in assay [10] it was 2.95 µM. Moreover, the TGI was found to be 14.1 µM in assay [1]; 20.4 µM in assay [2]; 11.6 µM in [3]; 15.3 µM in assay [4]; 17.7 µM in [5]; 5.54 µM in assay [6]. Besides, the TGI was 12.6 µM in assay [7], 4.55 µM in assay [8], 15.6 µM in assay [9] and 8.53 µM in [10].
Regarding `CN(C)C(=S)/N=c1\ssc(=S)n1Cc1ccco1`, the TGI in [1] is over 74.2 µM; in assay [2] it was 9.58 µM; in assay [3], over 83.7 µM; in [4] it was 84.8 µM; in [5], over 46.4 µM; in [6] it was over 100 µM. Also, the TGI in assay [7] was over 100 µM; in [8] it was over 55.7 µM; in [9] it was over 100 µM; in [10] it was 2.07 µM.
For `C[C@H]1COCCN1c1nc(-c2cnc(N)cc2C(F)F)nc(N2CCOCC2)n1`, the GI50 in [1] is 0.0301 µM; in assay [2] it was 0.224 µM; in [3], 0.225 µM; in [4] it was 0.098 µM; in assay [5] it was 0.181 µM; in assay [6], 0.0866 µM. Further, the GI50 in [7] was 0.318 µM; in [8] it was 0.692 µM; in assay [9], 0.0197 µM; in assay [10], 0.148 µM. Moreover, the TGI in [1] was 0.164 µM; in [2] it was over 100 µM; in assay [3], 33 µM; in assay [4], 0.818 µM; in [5], 5.15 µM; in [6] it was 0.815 µM. Moreover, the TGI was 41 µM in [7], over 100 µM in [8], 0.197 µM in [9] and over 60.8 µM in assay [10].
Regarding `CCN(CC)/[N+]([O-])=N/OCOC`, the TGI in [1], in [2], in assay [3], in assay [4], in assay [5] and in assay [6] was over 100 µM throughout. Also, the TGI in assay [7], in [8], in assay [9] and in assay [10] was over 100 µM in each case.
Regarding `CC(C)(O)CCc1cccc(C(=O)c2cnn(-c3ccc(F)cc3)c2N)c1`, the GI50 is over 18.4 µM in [1]; over 25 µM in assay [2]; over 25 µM in assay [3]; over 25 µM in [4]; over 25 µM in assay [5]; over 25 µM in [6]. The GI50 is over 25 µM in [7], over 25 µM in assay [8], 8.7 µM in assay [9] and over 25 µM in [10]. In addition, the TGI in [1], in assay [2], in [3], in [4], in assay [5] and in assay [6] was over 25 µM each time. The TGI in assay [7], in assay [8], in [9] and in assay [10] was over 25 µM throughout.

The values above are taken from PubChem BioAssay (NCI).
